Measurements from patent publication US6544542B1, “Fat emulsions for inhalational administration” (Nippon Shinyaku Co., Ltd., priority 1998, dated 2003).

Assay: Test Example 7: influence of the solubilization-effective surfactant concentration on nebulizer sprayability
Format: physicochemical

Row | nebulizer sprayability, CA | nebulizer sprayability, Dexamethasone palmitate | nebulizer sprayability, Guaiazulene | Substance
1 | Infeasible | – | – | Triton X100
2 | Infeasible | Infeasible | Infeasible | Tween-80
